Assay results as given in patent US6790839B2, “Pharmaceutical administration of adenosine agonists” (Can-Fite Biopharma Ltd., priority 1999, dated 2004).
“Also recorded” adds a separate entry of the source.

Key:
bone marrow cells [1] = assay: Bone marrow cell proliferation in vitro ([3H]-thymidine incorporation assay); assay type: cell-based, C57BL/6J mice
Method: All drugs were purchased from Sigma Chemical Co. St. Louis, Mo. Adenosine was dissolved in water and kept as a stock solution in a concentration of 1 mM. For in vitro studies, dilutions in RPMI medium were carried out and final concentrations of 100, 50, 25, 10 and 5 μM were used. For in vivo studies, the stock solution was diluted with PBS to a concentration of […] and 0.5 ml was injected intraperitoneally to mice. 1,3-dipropyl-8-cyclopentylxanthine (DPCPX), an adenosine A1 receptor antagonist, 3,7-dimethyl-1-propargyl-xanthine (DMPX) an A2 receptor antagonist and N-cyclopentyladenosine (CPA), a selective A1 receptor agonist were added to a culture of proliferating bone marrow cells.
Bone marrow cells were obtained from the femur of C57BL/6J mice. Cells were disaggregated by passing through a 25G needle. [^3H]-Thymidine incorporation assay was used to evaluate the proliferative capability of the bone marrow cells.
Cells (3×10^4/well were incubated with RPMI medium, containing 10% fetal calf serum (FCS) (Biological Industries, Beit Haemek, Israel) and adenosine, adenosine antagonists or the agonist in 96 microtiter plates for 48 h. Cultures containing cells were suspended in RPMI medium and 10% FCS served as controls. In the last 6 hours of incubation, each well was pulsed with 1 μCi [^3H]-thymidine. Cells were harvested and the ^3[H]-thymidine uptake was determined in an LKB liquid scintillation counter (LKB, Piscataway, N.J., USA).

[2] = tested on: white blood cells (WBC) and neutrophils; assay: In vivo protection against myelotoxic effects of chemotherapy: blood cell count (Coulter counter, differential counts); set-up: species or system ICR mice; conditions: for Neutrophils (no.) / WBC (no.): blood, CPA 6 μg/kg per os 48 h and 72 h where given; for Neutrophils (no.): control level 1200; for WBC (no.): control level 6100
Method: Male ICR mice of the age of two months and weighing an average of 25 gr were employed. The mice were purchased from Harlan Laboratories, Jerusalem, […]. Protection of CPA-treated mice against myelotoxic effects of chemotherapy was evaluated. To this end, mice were provided with a chemotherapeutic drug, a combination of the drug with CPA or with a vehicle only. […] In particular, three test groups of mice were treated daily according to the following regimen: 1. Control group-vehicle only. 2. Chemotherapy-CYP (50 mg/kg body weight). 3. Chemotherapy+chemoprotection-CYP (50 mg/kg body weight)+CPA (6 μg/kg body weight, given through per os administration, 48 h and 72 h following chemotherapy treatment). To test the myeloprotective effect of CPA, blood samples were withdrawn from the above-mentioned groups 96 h, 120 h and 144 h following treatment with CYP, the following measurements were taken. Blood cell count-Blood cell count was carried out in a Coulter counter and differential cell counts were performed on smear preparations stained with May-Grunvald-Giemsa solution. Serum was separated from the whole blood and was kept at -70° C.

G-CSF = assay: In vivo serum G-CSF level by ELISA after chemotherapy; set-up: species or system ICR mice; conditions: for G-CSF (pgr/ml): serum, CPA 6 μg/kg per os 48 h and 72 h after chemotherapy where given, male ICR mice
Method: Male ICR mice of the age of two months and weighing an average of 25 gr were employed. The mice were purchased from Harlan Laboratories, Jerusalem, […]. Protection of CPA-treated mice against myelotoxic effects of chemotherapy was evaluated. To this end, mice were provided with a chemotherapeutic drug, a combination of the drug with CPA or with a vehicle only. […] In particular, three test groups of mice were treated daily according to the following regimen: 1. Control group-vehicle only. 2. Chemotherapy-CYP (50 mg/kg body weight). 3. Chemotherapy+chemoprotection-CYP (50 mg/kg body weight)+CPA (6 μg/kg body weight, given through per os administration, 48 h and 72 h following chemotherapy treatment). To test the myeloprotective effect of CPA, blood samples were withdrawn from the above-mentioned groups 96 h, 120 h and 144 h following treatment with CYP, the following measurements were taken. G-CSF level-granulocyte colony stimulating factor (G-CSF) level in the serum was determined by the use of a commercial ELISA kit (R&D Systems). G-CSF activity was expressed in pgr/ml according to a standard curve of recombinant G-CSF supplied by R&D Systems.

bone marrow cells [3] = conditions: adenosine 10-50 μM, concentration dependent; cited from earlier work

OC[C@H]1O[C@@H](n2cnc3c(NC4CCCC4)ncnc32)[C@H](O)[C@@H]1O [CPA, N-cyclopentyladenosine]
stimulation of bone marrow cell proliferation (bone marrow cells [1]; concentrations of 0.1 and 0.01 μM, FIG 2): statistically significant stimulation
in vivo protection against myelotoxicity of chemotherapeutic drugs ([2]; mice given CYP 50 mg/kg, CPA 6 μg/kg per os): provides in vivo protection against myelotoxicity; also recorded: acts as a chemoprotective agent
level of G-CSF (summary in words) (G-CSF; combined treatment versus CYP only, CPA given orally to mice): induces in vivo G-CSF production

O=P1(N(CCCl)CCCl)NCCCO1 (stereo not shown) [CYP, cyclophosphamide]
number of leukocytes and neutrophils (summary in words) ([2]; CYP only versus control, combined treatment versus CYP only): reduce significantly
Neutrophils (no.) ([2]; 96 hrs after CYP 50 mg/kg): 377 no.
WBC (no.) ([2]; 96 hrs after CYP 50 mg/kg): 2620 no.
Neutrophils (no.) ([2]; 120 hrs after CYP 50 mg/kg): 490 no.
WBC (no.) ([2]; 120 hrs after CYP 50 mg/kg): 2800 no.
Neutrophils (no.) ([2]; 144 hrs after CYP 50 mg/kg): 1326 no.
WBC (no.) ([2]; 144 hrs after CYP 50 mg/kg): 3900 no.
G-CSF (pgr/ml) (G-CSF; 96 hrs after CYP 50 mg/kg): 511.30 pgr/ml
G-CSF (pgr/ml) (G-CSF; 120 hrs after CYP 50 mg/kg): 333.03 pgr/ml
G-CSF (pgr/ml) (G-CSF; 144 hrs after CYP 50 mg/kg): 871.14 pgr/ml

C#CCn1c(=O)c2c(ncn2C)n(C)c1=O [DMPX, 3,7-dimethyl-1-propargyl-xanthine]
effect on bone marrow cell proliferation (bone marrow cells [1]; 0.1 μM, given without or with adenosine, FIG 1): induced a stimulatory effect

CCCn1c(=O)c2[nH]c(C3CCCC3)nc2n(CCC)c1=O [DPCPX, 1,3-dipropyl-8-cyclopentylxanthine]
effect on adenosine-stimulated bone marrow cell proliferation (bone marrow cells [1]; 0.1 μM, with adenosine, FIG 1): significantly reversed the stimulatory effect of adenosine

Nc1ncnc2c1ncn2[C@@H]1O[C@H](CO)[C@@H](O)[C@H]1O [adenosine]
3[H]-thymidine incorporation of bone marrow cells (bone marrow cells [3]): stimulated
